# Where a SMILES comes first, the peptide text is derived from it.
# Tested on: engineered mammalian cells
# Assay: Resazurin-based cell viability assay
# Conditions: 50 and 250 µmol/L, 24 h, n = 4
# Procedure: Cells were incubated with resazurin (cat. no. R7017, Sigma‐Aldrich, USA) at a concentration of 50 µg ml^−1 for 2 h. Then fluorescence was assayed with a plate reader (Tecan Spark, Tecan Group Ltd., Switzerland) at excitation and emission wavelengths of 540 and 590 nm, respectively. The fluorescence intensity of non‐induced cells was set to 100%.
row,Compound,HEK-XIP cell viability
1,CC[C@H](C)[C@H](NC(=O)[C@H](CCSC)NC(=O)[C@H](Cc1ccccc1)NC(=O)[C@H](Cc1ccc(O)cc1)NC(=O)[C@@H]1CCCN1C(=O)[C@@H](N)C(C)C)C(=O)N[C@@H](Cc1ccc(O)cc1)C(=O)N[C@@H](Cc1ccc(O)cc1)C(=O)O [RE10] (H-VPYFMIYY-OH),ns
2,CSCC[C@H](NC(=O)[C@H](Cc1ccccc1)NC(=O)[C@H](Cc1ccc(O)cc1)NC(=O)[C@@H]1CCCN1C(=O)[C@H](C)N)C(=O)NCC(=O)N[C@@H](Cc1ccc(O)cc1)C(=O)N[C@@H](Cc1ccc(O)cc1)C(=O)O [RE12] (H-APYFMGYY-OH),ns
3,APYFMIYY [RE11],ns

# Tested on: ComREXTRA in HEK-XIP cells
# Assay: SEAP expression by monoclonal cell line HEK-XIP / monoclonal clones
# Assay type: cell-based, Streptococcus vestibularis
# Conditions: peptides from human sequence BLAST (Supplementary Figure 14c,d), 24 h, n = 4
# Procedure: HEK‐293T or hMSC‐TERT cells were seeded in a 24‐well plate at a density of 5× 10^4 cells per well for 24 h. Then the cells were co‐transfected with 1000 ng of plasmid mixture containing pJH1611 (ITR‐OSTAT3‐SEAP‐P2A‐mINS‐pA:PRPBSA‐ECFP‐P2A‐PuroR‐pA‐ITR), pJH1618 (ITR‐PhCMV‐STAT3‐pA:PRPBSA‐ECFP‐P2A‐PuroR‐pA‐ITR), pJH1632 (ITR‐PSV40‐SP‐ComRK155R/F158Y/R186S/S222N/C17S‐EpoR‐IL‐6RB‐pA: PhCMV‐ZeoR‐P2A‐mRuby‐pA‐ITR) and the Sleeping Beauty transposase pJH42 (PhCMV‐SB100X‐pA)^[ [6], [44] ^] at the molar ratio of 2:10:50:6. After 24 h of transfection, the cells were transferred into the medium containing 0.5 µg ml^−1 puromycin, 5 µg ml^−1 blasticidin, and 100 µg ml^−1 of zeocin for antibiotic selection for three days. Then the polyclonal population of engineered cells was suspended in DMEM medium and separated by fluorescence‐activated cell sorting (FACS, BD FACS ARIA FUSION, BD Biosciences) using yPET (517/530), mRuby (558/605), and iRFP (690/713) fluorescence. The triple‐positive population was isolated into single cells and further cultured in 96‐well plates in medium containing the three selection antibiotics. After two weeks of clonal expansion, monoclonal cell lines were screened by the addition of XIP and the best‐in‐class cell line was selected for follow‐up experiments. Fluorescence‐based flow cytometry was performed to confirm triple‐positive fluorescence for the best‐in‐class cell line.
# SEAP reporter levels in cell culture supernatants were quantified using a colorimetric assay. In brief, 20 µl of cell culture supernatant was mixed with 80 µl of PBS buffer (cat. no. 14190144, ThermoFisher) and heat‐inactivated at 65 °C for 30 min. Then 80 µl of 2x SEAP assay buffer (20 mM homoarginine, 1 mM MgCl2, 21% diethanolamine, pH 9.8) was mixed with 20 µl of substrate solution, and 100 µl of the buffer‐substrate mixture was added to 100 µl of the diluted heat‐inactivated sample. Absorbance at 405 nm was recorded using a plate reader (Tecan Spark, Tecan Group Ltd., Switzerland) for 30 min at 37 °C to determine the SEAP levels.
row,Compound,SEAP level vs non-induced (significance)
1,"APFFYY [Align19_APFFYY, short peptide based on conserved human motif]",ns
2,"DPFFYY [Align18_DPFFYY, short peptide based on conserved human motif]",ns
3,"LPFFMIL [Align10-13_LPFFMIL, short peptide based on conserved human motif]",ns
4,"PPFFYY [Align14/20_PPFFYY, short peptide based on conserved human motif]",ns
5,"RAPKFMIY [Align14_RAPKFMIY, short peptide based on conserved human motif]",ns
6,"RPFFYY [Align10-12_RPFFYY, short peptide based on conserved human motif]",ns
7,"RPFFYYYY [Align3-4_RPFFYYYY, short peptide based on conserved human motif]",ns
8,"RPFHFMIY [Align15-20_RPFHFMIY, short peptide based on conserved human motif]",ns
9,"VPFFMIIC [Align1-9_VPFFMIIC, short peptide based on conserved human motif]",ns
10,"VPFFYYYY [Align1-2_VPFFYYYY, short peptide based on conserved human motif]",ns
11,"VPFYYY [Align8-9/17_VPFYYY, short peptide based on conserved human motif]",ns
12,"VPFYYYY [Align5-7_VPFYYYY, short peptide based on conserved human motif]",ns
13,"VPYFYY [Align16_VPYFYY, short peptide based on conserved human motif]",ns
14,"VPYFYYY [Align15_VPYFYYY, short peptide based on conserved human motif]",ns

# Same assay, conditions: specificity / orthogonality screening, 24 h, vs non-induced control
row,Compound,SEAP induction in HEK-XIP cells (result in words)
1,BAM8‐22 [reference compound],none of them displayed inducing activity
2,C peptide [reference compound],none of them displayed inducing activity
3,VPFFMYY [ID1],significant fold inductions

# From article PMC11267282, “Ultrashort‐Peptide‐Responsive Gene Switches for Regulation of Therapeutic Protein Expression in Mammalian Cells” (Advanced Science, 2024)
